Test results taken from patent US11040035B2, “3-oxo-2,6-diphenyl-2,3-dihydropyridazine-4-carboxamides” (BAYER PHARMA AKTIENGESELLSCHAFT, priority 2016, dated 2021).
Like-named read-outs stand apart in the source and are kept apart here.

Columns and labels:
[1] = test system: AHR-regulated gene CYP1A1; assay: In vitro assay 3: AHR-regulated CYP1A1 expression in human cell line (U937, qPCR)
AHR [2] = target: T1, AHR (Homo sapiens, UniProt P35869); assay: In vitro assay 1: antagonism in human cell line (transactivation assay, kynurenic acid prestimulated); settings: Assay 1: AHR-luc Hum Antagonism IC50 [M], 150 μM kynurenic acid, 20 hours, firefly luciferase
T1 sequence (P35869 11-848): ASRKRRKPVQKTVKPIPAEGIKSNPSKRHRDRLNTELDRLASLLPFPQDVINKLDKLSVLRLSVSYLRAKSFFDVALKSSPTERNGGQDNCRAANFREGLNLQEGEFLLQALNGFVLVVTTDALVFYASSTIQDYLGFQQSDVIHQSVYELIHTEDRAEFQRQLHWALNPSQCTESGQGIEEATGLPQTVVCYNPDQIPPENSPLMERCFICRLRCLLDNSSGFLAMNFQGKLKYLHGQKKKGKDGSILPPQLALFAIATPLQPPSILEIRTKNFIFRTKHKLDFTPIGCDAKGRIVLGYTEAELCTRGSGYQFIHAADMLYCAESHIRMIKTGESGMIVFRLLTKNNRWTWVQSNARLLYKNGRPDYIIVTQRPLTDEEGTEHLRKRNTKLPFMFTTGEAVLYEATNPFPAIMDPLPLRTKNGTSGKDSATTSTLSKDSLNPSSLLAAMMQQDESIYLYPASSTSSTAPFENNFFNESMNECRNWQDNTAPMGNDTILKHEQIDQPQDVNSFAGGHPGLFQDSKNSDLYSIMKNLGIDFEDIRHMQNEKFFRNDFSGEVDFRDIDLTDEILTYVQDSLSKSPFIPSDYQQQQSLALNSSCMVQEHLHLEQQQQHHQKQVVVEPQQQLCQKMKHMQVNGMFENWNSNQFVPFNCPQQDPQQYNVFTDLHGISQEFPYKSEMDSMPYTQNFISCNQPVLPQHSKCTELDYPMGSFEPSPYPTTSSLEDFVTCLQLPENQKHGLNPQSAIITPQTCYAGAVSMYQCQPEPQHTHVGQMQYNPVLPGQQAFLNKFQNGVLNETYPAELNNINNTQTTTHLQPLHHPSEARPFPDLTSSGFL

AHR [3] = target: T1, AHR; assay: In vitro assay 2: agonism in human cell line (transactivation assay)
[4] = Homo sapiens, U-937, 6 h, read-out: Assay 3: Hum CYP1A1 Antagonism IC50 [M], U937 cells, 200 μM KA, 6 hours, qPCR
[5] = Assay 2: AHR-luc Hum Agonism IC50 [M], no kynurenic acid, 20 hours, firefly luciferase
[6] = read-out: Assay 3: Hum CYP1A1 Antagonism IC50, U937 cells, 200 μM KA, 6 hours, qPCR
[7] = read-out: Assay 2: AHR-luc Hum Agonism IC50, no kynurenic acid, 20 hours, firefly luciferase

Row | Structure (SMILES) | IC50 [1, 4] | IC50 (AHR [2]) | IC50 (AHR [3]; [5]) | IC50 [1, 6] | IC50 (AHR [3]; [7])
1 | O=C(NC(CO)C1CC1)c1cc(-c2ccc(C(F)(F)F)cc2)nn(-c2cccc(F)c2)c1=O (racemic) [Example 267, N-[(1RS)-1-Cyclopropyl-2-hydroxyethyl]-2-(3-fluorophenyl)-3-oxo-6-[4-(trifluoromethyl)phenyl]-2,3-dihydropyridazine-4-carboxamide] | 1.05e-08 M | 2.9e-08 M | > 2e-05 M | – | –
2 | O=C(NC(CO)CF)c1cc(-c2ccc(Cl)cc2)nn(-c2cccc(F)c2)c1=O (racemic) [Example 323, 6-(4-chlorophenyl)-N-[(2RS)-1-fluoro-3-hydroxypropan-2-yl]-2-(3-fluorophenyl)-3-oxo-2,3-dihydropyridazine-4-carboxamide] | 3.2e-08 M | 2.43e-08 M | > 2e-05 M | – | –
3 | O=C(N[C@H]1CC[C@@H]1O)c1cc(-c2ccc(Cl)cc2)nn(-c2cccc(F)c2)c1=O (racemic) [Example 348, 6-(4-chlorophenyl)-2-(3-fluorophenyl)-N-(trans-2-hydroxycyclobutyl)-3-oxo-2,3-dihydropyridazine-4-carboxamide] | 1.37e-07 M | 5.11e-08 M | > 2e-05 M | – | –
4 | N#CC(CO)NC(=O)c1cc(-c2ccc(Cl)cc2)nn(-c2cccc(F)c2)c1=O (racemic) [Example 371, 6-(4-chlorophenyl)-N-[(1RS)-1-cyano-2-hydroxyethyl]-2-(3-fluorophenyl)-3-oxo-2,3-dihydropyridazine-4-carboxamide] | 5.69e-08 M | 1.63e-08 M | > 2e-05 M | – | –
5 | O=C(N[C@@H]1CCCC[C@@H]1O)c1cc(-c2ccc(Cl)cc2)nn(-c2cccc(F)c2)c1=O (relative stereo) [Example 103, 6-(4-Chlorophenyl)-2-(3-fluorophenyl)-N-(cis-2-hydroxycyclohexyl)-3-oxo-2,3-dihydropyridazine-4-carboxamide] | 4.47e-09 M | 1.59e-08 M | > 2e-05 M | – | –
6 | COc1ccc(-c2cc(C(=O)N[C@@H](C)[C@H](C)O)c(=O)n(-c3cccc(F)c3)n2)cc1 (relative stereo) [Example 116, rel-2-(3-Fluorophenyl)-N-[(2S,3S)-3-hydroxybutan-2-yl]-6-(4-methoxyphenyl)-3-oxo-2,3-dihydropyridazine-4-carboxamide] | 9.69e-08 M | 2.9e-08 M | > 2e-05 M | – | –
7 | O=C(N[C@H]1CCC[C@@H]1O)c1cc(-c2ccc(Cl)cc2)nn(-c2cccc(F)c2)c1=O (relative stereo) [Example 123, 6-(4-Chlorophenyl)-2-(3-fluorophenyl)-N-(trans-2-hydroxycyclopentyl)-3-oxo-2,3-dihydropyridazine-4-carboxamide] | 9.77e-08 M | 3.63e-08 M | > 2e-05 M | – | –
8 | O=C(N[C@@H]1CC[C@@H]1O)c1cc(-c2ccc(Cl)cc2)nn(-c2cccc(F)c2)c1=O (relative stereo) [Example 357] | 2.7e-08 M | 2.13e-08 M | > 2e-05 M | – | –
9 | O=C(NCC(O)C(F)(F)F)c1cc(-c2ccc(Cl)cc2)nn(-c2cccc(F)c2)c1=O (single isomer, unassigned) [Example 26, 6-(4-Chlorophenyl)-2-(3-fluorophenyl)-3-oxo-N-(3,3,3-trifluoro-2-hydroxypropyl)-2,3-dihydropyridazine-4-carboxamide] | – | 1.84e-08 M | > 2e-05 M | 3.52e-08 M | –
10 | O=C(NCC(O)C(F)(F)F)c1cc(-c2ccc(Cl)cc2)nn(-c2cccc(F)c2)c1=O (single isomer, unassigned) [Example 27, 6-(4-Chlorophenyl)-2-(3-fluorophenyl)-3-oxo-N-(3,3,3-trifluoro-2-hydroxypropyl)-2,3-dihydropyridazine-4-carboxamide] | – | 1.06e-07 M | – | 2.44e-07 M | > 2e-05 M
11 | CC(C)C(O)CNC(=O)c1cc(-c2ccc(Cl)cc2)nn(-c2cccc(F)c2)c1=O (single isomer, unassigned) [Example 29, 6-(4-Chlorophenyl)-2-(3-fluorophenyl)-N-(2-hydroxy-3-methylbutyl]-3-oxo-2,3-dihydropyridazine-4-carboxamide] | 1.55e-07 M | 9.15e-08 M | > 2e-05 M | – | –
12 | CC(C)C(O)CNC(=O)c1cc(-c2ccc(Cl)cc2)nn(-c2cccc(F)c2)c1=O (single isomer, unassigned) [Example 30, 6-(4-Chlorophenyl)-2-(3-fluorophenyl)-N-(2-hydroxy-3-methylbutyl]-3-oxo-2,3-dihydropyridazine-4-carboxamide] | – | 1.33e-07 M | – | 1.77e-07 M | > 2e-05 M
13 | O=C(NCC(O)C(F)(F)F)c1cc(-c2ccc(Cl)cc2)nn(-c2cc(F)cc(F)c2)c1=O (single isomer, unassigned) [Example 45, 6-(4-Chlorophenyl)-2-(3,5-difluorophenyl)-3-oxo-N-(3,3,3-trifluoro-2-hydroxypropyl)-2,3-dihydropyridazine-4-carboxamide] | 1.18e-08 M | 1.02e-08 M | > 2e-05 M | – | –
14 | CC(C)C(O)CNC(=O)c1cc(-c2ccc(Cl)cc2)nn(-c2cc(F)cc(F)c2)c1=O (single isomer, unassigned) [Example 49, 6-(4-Chlorophenyl)-2-(3,5-difluorophenyl)-N-(2-hydroxy-3-methylbutyl)-3-oxo-2,3-dihydropyridazine-4-carboxamide] | – | 3.42e-08 M | > 2e-05 M | 4.92e-08 M | –
15 | CC(C)C(O)CNC(=O)c1cc(-c2ccc(Cl)cc2)nn(-c2cc(F)cc(F)c2)c1=O (single isomer, unassigned) [Example 50, 6-(4-Chlorophenyl)-2-(3,5-difluorophenyl)-N-(2-hydroxy-3-methylbutyl)-3-oxo-2,3-dihydropyridazine-4-carboxamide] | – | 5.8e-08 M | – | 1.51e-07 M | > 2e-05 M
16 | Cc1ccc(-c2cc(C(=O)NCC(O)C(C)C)c(=O)n(-c3cc(F)cc(F)c3)n2)cc1 (single isomer, unassigned) [Example 57, 2-(3,5-Difluorophenyl)-N-(2-hydroxy-3-methylbutyl)-6-(4-methylphenyl)-3-oxo-2,3-dihydropyridazine-4-carboxamide] | – | 3.49e-08 M | > 2e-05 M | 3.83e-08 M | –
17 | Cc1ccc(-c2cc(C(=O)NCC(O)C(C)C)c(=O)n(-c3cc(F)cc(F)c3)n2)cc1 (single isomer, unassigned) [Example 58, 2-(3,5-Difluorophenyl)-N-(2-hydroxy-3-methylbutyl)-6-(4-methylphenyl)-3-oxo-2,3-dihydropyridazine-4-carboxamide] | – | 4.28e-08 M | – | 1.34e-07 M | > 2e-05 M
18 | O=C(NCC(O)C(F)(F)F)c1cc(-c2ccc(C(F)F)cc2)nn(-c2cccc(F)c2)c1=O (single isomer, unassigned) [Example 95, 6-[4-(Difluoromethyl)phenyl]-2-(3-fluorophenyl)-3-oxo-N-(3,3,3-trifluoro-2-hydroxypropyl)-2,3-dihydropyridazine-4-carboxamide] | – | 6.77e-09 M | > 2e-05 M | 7.63e-09 M | –
19 | O=C(NCC(O)C(F)(F)F)c1cc(-c2ccc(C(F)F)cc2)nn(-c2cccc(F)c2)c1=O (single isomer, unassigned) [Example 96, 6-[4-(Difluoromethyl)phenyl]-2-(3-fluorophenyl)-3-oxo-N-(3,3,3-trifluoro-2-hydroxypropyl)-2,3-dihydropyridazine-4-carboxamide] | – | 2.92e-08 M | – | 4.03e-08 M | > 2e-05 M
20 | COc1ccc(-c2cc(C(=O)NC(CO)C(F)(F)F)c(=O)n(-c3cccc(F)c3)n2)cc1 (single isomer, unassigned) [Example 101, 2-(3-fluorophenyl)-6-(4-methoxyphenyl)-3-oxo-N-(1,1,1-trifluoro-3-hydroxypropan-2-yl)-2,3-dihydropyridazine-4-carboxamide] | – | 1.24e-08 M | > 2e-05 M | 1.88e-08 M | –
21 | COc1ccc(-c2cc(C(=O)NC(CO)C(F)(F)F)c(=O)n(-c3cccc(F)c3)n2)cc1 (single isomer, unassigned) [Example 102, 2-(3-Fluorophenyl)-6-(4-methoxyphenyl)-3-oxo-N-(1,1,1-trifluoro-3-hydroxypropan-2-yl)-2,3-dihydropyridazine-4-carboxamide] | – | 4.22e-08 M | – | 4.37e-08 M | > 2e-05 M
